According to patent US11872196B2, “Use of cannabidiol in treatment of pulmonary hypertension” (DEYI PHARMARMACEUTICAL LTD., priority 2017, dated 2024):

Columns and labels:
[1] = tested on: C57BL/6 mice with pulmonary arterial hypertension caused by hypoxia; test: Pathological changes of pulmonary arterioles (HE and elastic fiber staining, vascular remodeling rate) in hypoxia PAH mice; type: in vivo, mouse
Procedure: (§1) Healthy and lively C57BL/6 mice at the age of 4-6 weeks, with glossy hair colors, and body weights of (25.15±2.15) g (Laboratory Animal Center of Academy of Military Medical Sciences, SPF grade). The mice were divided into four groups: • Group 1 (wild-type normoxia, used as a control group): 10 female mice and 10 male mice under normoxia conditions; • Group 2 (wild-type hypoxia, used as a control group): 10 female mice and 10 male mice under hypoxia conditions; • Group 3 (10 mg/kg, used as an experimental group): 10 female mice and 10 male mice were treated with 10 mg/kg by gavage under hypoxia conditions; • Group 4 (50 mg/kg, used as an experimental group): 10 female mice and 10 male mice were treated with 50 mg/kg by gavage under hypoxia conditions.
(§2) The mice of groups 2-4 were placed in an animal feeding chamber under normal pressure and hypoxia, the oxygen concentration in the chamber was maintained at 9%-11%, and the temperature in the chamber was maintained at 22-26° C. The mice of group 1 inhaled normal atmosphere air, and the other conditions were the same as those for mice of groups 2-4.
In order to explore whether CBD has a therapeutic effect on pulmonary arterial hypertension or not, the inventor first treated mice for 14 days in a continuous hypoxia environment to establish a model of pulmonary arterial hypertension (the groups 2-4), and then administration was started from day 15 to day 21 through gavage once a day, the mice were treated every day for 7 days (the group 3-4), and detection was performed on day 21.
Sample: paraffin sections of mouse lung tissue.
Objective: observing the pathology of lung tissues to detect whether there is a vascular wall thickening phenomenon or not.

MgI2 = test: LPS-induced primary alveolar macrophages, MgI2 expression by fluorescence quantitative PCR; type: cell-based, mouse; details: 0.5, 1, 5 μM CBD pre-treatment 0.5 h, then 100 ng/mL LPS, 5 h
Excerpt: (§3) Primary alveolar macrophages were isolated according to the method by Yang et al. (Yang, H. M., Ma, J. Y., Castranova, V., and Ma, J. K. (1997). Effects of diesel exhaust particles on the release of interleukin-1 and tumor necrosis factor-alpha from rat alveolar macrophages. Experimental lung research 23, 269-284): two-month-old mice were taken and injected intraperitoneally with pentobarbital to be anesthetized. The mice were fixed at a supine position, and disinfected at the neck, and the neck skin was cut open to strip gland muscles and expose the trachea. A small opening was cut in an upper part of the trachea without cutting off. A small white pipette tip was inserted onto a 1 ml pipette to pipette 1 ml PBS at 4° C. (free of Ca^2+, free of Mg^2+, […]) [50 ml PBS+0.00876 g EDTA] into the lung from the opening, and then pipetted out from the opening after blowing in. Then fresh PBS was taken and pipetted into and out from the opening repeatedly for 3-4 times. The collected alveolar irrigation solution was centrifuged at 200×g for 5 minutes, and the supernatant was discarded. The cells were washed once with a serum-free RPMI-1640 culture medium and centrifuged at 200×g for 5 minutes. The cells were resuspended by adding a serum-containing RPMI-1640 and then inoculated. The cells were subjected to adherence for 2 h, and then washed for three times with PBS. […]

[2] = tested on: C57BL/6 mice with pulmonary arterial hypertension caused by hypoxia; test: Right ventricular hypertrophy (RVH) index RV/(LV+S) in hypoxia PAH mice; type: in vivo, mouse; details: 7 days, model group 32.62±1.41, normoxia 25.99±1.17, mean±standard error
Procedure: as §1
as §2, with “2-4. […]” for “2-4.”

TNF-α = test: LPS-induced primary alveolar macrophages, TNF-α expression by fluorescence quantitative PCR; type: cell-based, mouse; details: 0.5, 1, 5 μM CBD pre-treatment 0.5 h, then 100 ng/mL LPS, 5 h; dose-dependent
Excerpt: as §3

[3] = tested on: C57BL/6 mice with pulmonary arterial hypertension caused by hypoxia; test: Right ventricular systolic pressure (RVSP) in mice with pulmonary arterial hypertension caused by hypoxia; type: in vivo, mouse; details: day 15 to 21 of continuous hypoxia, detection on day 21, hypoxia model control 25.55±2.29, normoxia 17.54±1.48, mean±standard error
Procedure: as §1, with “conditions. […]” for “conditions.”
On day 21, the mice were anesthetized by intraperitoneal injection of sodium pentobarbital (35 mg/kg), and the right ventricular systolic pressure was measured by using a catheter matched with a physiological instrument with reference to the right-heart catheterization reported by Song et al. (Song, Y., Jones, J. E., Beppu, H., Keaney, J. F., Jr., Loscalzo, J., and Zhang, Y. Y. (2005). Increased susceptibility to pulmonary hypertension in heterozygous BMPR2-mutant mice. Circulation 112, 553-562). […] After the catheter entered the right ventricle, RVSP was determined and recorded.

IL-6 = test: LPS-induced primary alveolar macrophages, IL-6 expression by fluorescence quantitative PCR; type: cell-based, mouse; details: 0.5, 1, 5 μM CBD pre-treatment 0.5 h, then 100 ng/mL LPS, 5 h; dose-dependent
Excerpt: as §3

[4] = after CBD treatment (10 and 50 mg/kg by gavage) versus hypoxia model group
[5] = both dose groups (10 and 50 mg/kg)

SMILES: C=C(C)[C@@H]1CCC(C)=C[C@H]1c1c(O)cc(CCCCC)cc1O [CBD, Cannabidiol]
- pulmonary arteriole remodeling [1, 4]: significantly reduced
- vascular remodeling rate [1, 4]: significantly reduced
- arterial medial wall thickness ratio [1, 5]: reduction
- vascular wall medial cross-sectional area ratio [1, 5]: reduction
- expression of MgI2, a gene that inhibited inflammation (MgI2): promote
- right ventricular hypertrophy index (right heart index) ([2]; 10 mg/kg by gavage): 30.18±1.01%
- right ventricular hypertrophy index (right heart index) ([2]; 50 mg/kg by gavage): 29.90±1.19%
- expression of LPS-induced TNF-α (TNF-α): significantly inhibit
- mean right ventricular systolic pressure ([3]; 10 mg/kg by gavage once a day): 16.90±2.31 mmHg
- mean right ventricular systolic pressure ([3]; 50 mg/kg by gavage once a day): 17.92±2.37 mmHg
- expression of LPS-induced IL-6 (IL-6): significantly inhibit
